Assay results: patent US20050267221A1, “Use of curcumin and analogues thereof as inhibitors of ACC2” (Research Development Foundation, priority 2004, published 2005)

Assays:
recombinant human ACC2 = recombinant human ACC2 (Homo sapiens, UniProt O00763); test: Radioactive assay of ACC2 activity ([14C]KHCO3 incorporation into malonyl-CoA); assay type: biochemical
Method: The reaction mixture contained 50 mM HEPES, pH 7.5, 2.5 mM MnCl2, 2.0 mM DTT, 0.125 mM acetyl-CoA, 4.0 mM ATP, 12.5 mM [^14C]KHCO3 (4×10^6 dpm), 0.75 mg/mL BSA, 10 mM tripotassium citrate and 0.1-0.2 μg ACC enzyme, in a total volume of 150 μL. The reaction was initiated by the addition of ACC2 and the assay was carried out at 37° C. for 2-7 min. The reaction was stopped by the addition of 50 μL of 6 N HCl. Subsequently, 150 μL was transferred into a glass scintillation vial and evaporated to dryness by heating to 85° C. in a heating block for 1 hour. The dried vials were cooled, 0.5 mL of water and 5 mL of ScintiSafe™ 30% were added, and the radioactivity was determined in a Beckman liquid scintillation counter (LS 3801). The tubes, where HCl was added before the addition of acetyl-CoA carboxylase, served as blanks. Avicin G and curcumin inhibitors were made up as stock solutions in water and DMSO, respectively, and added to the assay at the indicated concentrations such that the DMSO concentration was 1% (v/v). All reactions were performed in duplicate. Enzyme activity was based on radioactivity detected in malonyl-CoA and the dpm's set to 100% activity in the absence of any test compound. Inhibition by 1% (v/v) DMSO which was 16% was subtracted from values obtained in the dose response study.
A dose-response series was conducted with curcumin (in DMSO) to verify a classical inhibition pattern. In this study, all curcumin concentrations were added in 1% (v/v) DMSO and the enzyme activity measured.
The radioactive assay (as described in Example 3) was used to determine effects of the test compounds, avicin G and curcumin, on human acetyl-CoA carboxylase 2.

[1] = cited from earlier work

recombinant human ACC2, sequence (O00763 whole entry): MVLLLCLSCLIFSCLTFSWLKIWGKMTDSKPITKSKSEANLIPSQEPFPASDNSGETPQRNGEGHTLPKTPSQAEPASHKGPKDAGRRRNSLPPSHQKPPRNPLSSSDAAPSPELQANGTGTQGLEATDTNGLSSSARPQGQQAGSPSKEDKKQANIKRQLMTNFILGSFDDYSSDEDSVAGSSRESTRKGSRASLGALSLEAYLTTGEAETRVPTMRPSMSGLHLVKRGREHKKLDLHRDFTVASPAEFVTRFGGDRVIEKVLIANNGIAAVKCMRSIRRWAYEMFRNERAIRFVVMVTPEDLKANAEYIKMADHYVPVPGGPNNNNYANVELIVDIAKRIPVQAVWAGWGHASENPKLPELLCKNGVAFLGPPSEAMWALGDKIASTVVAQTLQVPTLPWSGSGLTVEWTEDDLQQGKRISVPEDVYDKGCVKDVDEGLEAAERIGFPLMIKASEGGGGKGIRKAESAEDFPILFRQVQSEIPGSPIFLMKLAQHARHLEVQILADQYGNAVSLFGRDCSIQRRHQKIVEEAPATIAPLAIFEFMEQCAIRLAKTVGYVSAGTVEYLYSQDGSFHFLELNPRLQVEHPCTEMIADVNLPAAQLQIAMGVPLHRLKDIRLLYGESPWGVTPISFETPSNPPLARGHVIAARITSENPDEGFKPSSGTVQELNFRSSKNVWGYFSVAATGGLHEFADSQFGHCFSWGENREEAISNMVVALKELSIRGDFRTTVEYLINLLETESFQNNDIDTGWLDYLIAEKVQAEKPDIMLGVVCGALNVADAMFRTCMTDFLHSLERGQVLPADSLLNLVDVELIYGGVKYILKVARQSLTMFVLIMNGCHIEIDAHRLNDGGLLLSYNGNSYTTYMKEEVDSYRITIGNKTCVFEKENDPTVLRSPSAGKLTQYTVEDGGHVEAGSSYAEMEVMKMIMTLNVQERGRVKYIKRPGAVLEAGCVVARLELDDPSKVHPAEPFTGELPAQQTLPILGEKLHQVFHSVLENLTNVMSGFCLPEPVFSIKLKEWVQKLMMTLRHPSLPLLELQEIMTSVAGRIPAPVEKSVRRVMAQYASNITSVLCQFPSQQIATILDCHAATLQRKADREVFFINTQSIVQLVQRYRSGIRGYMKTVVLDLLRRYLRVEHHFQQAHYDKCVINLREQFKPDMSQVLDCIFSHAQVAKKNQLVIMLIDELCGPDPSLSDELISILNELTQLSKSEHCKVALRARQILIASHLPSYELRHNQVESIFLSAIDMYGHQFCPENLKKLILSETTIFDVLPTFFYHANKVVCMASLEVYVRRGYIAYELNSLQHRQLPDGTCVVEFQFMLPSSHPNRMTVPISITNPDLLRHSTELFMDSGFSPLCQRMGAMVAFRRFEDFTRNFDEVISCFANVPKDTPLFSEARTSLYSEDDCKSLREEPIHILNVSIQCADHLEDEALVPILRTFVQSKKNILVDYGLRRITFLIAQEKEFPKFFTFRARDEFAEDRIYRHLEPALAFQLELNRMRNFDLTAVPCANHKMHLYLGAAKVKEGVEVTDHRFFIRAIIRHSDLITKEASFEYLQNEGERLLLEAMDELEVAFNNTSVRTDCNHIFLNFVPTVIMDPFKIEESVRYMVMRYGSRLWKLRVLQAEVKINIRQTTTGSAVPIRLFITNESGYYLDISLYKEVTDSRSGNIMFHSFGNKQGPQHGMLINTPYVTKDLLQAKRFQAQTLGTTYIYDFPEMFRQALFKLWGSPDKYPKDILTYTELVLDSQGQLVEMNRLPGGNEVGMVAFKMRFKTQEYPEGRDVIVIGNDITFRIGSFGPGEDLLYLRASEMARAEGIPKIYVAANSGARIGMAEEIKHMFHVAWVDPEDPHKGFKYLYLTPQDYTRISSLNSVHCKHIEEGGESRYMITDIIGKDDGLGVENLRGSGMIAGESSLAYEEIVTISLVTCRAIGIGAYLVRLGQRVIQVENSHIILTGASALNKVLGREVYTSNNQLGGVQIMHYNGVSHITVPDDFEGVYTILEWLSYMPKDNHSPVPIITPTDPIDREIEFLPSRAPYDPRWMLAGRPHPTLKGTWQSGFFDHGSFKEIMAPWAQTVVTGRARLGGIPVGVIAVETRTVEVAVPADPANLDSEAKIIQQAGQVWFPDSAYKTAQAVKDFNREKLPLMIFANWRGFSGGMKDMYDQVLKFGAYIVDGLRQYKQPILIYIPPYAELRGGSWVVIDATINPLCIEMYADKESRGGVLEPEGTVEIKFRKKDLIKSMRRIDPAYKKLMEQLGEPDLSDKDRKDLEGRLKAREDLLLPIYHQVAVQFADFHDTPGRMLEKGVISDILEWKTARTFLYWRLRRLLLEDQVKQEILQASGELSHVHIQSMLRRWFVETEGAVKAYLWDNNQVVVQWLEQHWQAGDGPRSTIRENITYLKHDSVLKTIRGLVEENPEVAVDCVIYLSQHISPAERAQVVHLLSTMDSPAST

| ACC Activity (%) ± S.D. (recombinant human ACC2; human ACC2, additive at 50 μM, curcumin in 1% (v/v) DMSO final, activity without test compound = 100%, duplicate) [%] | dose-response inhibition of ACC2 (in words) (recombinant human ACC2; human ACC2, dose-response series, all concentrations in 1% (v/v) DMSO, FIG. 1) | effect on ACC2 activity (in words) (recombinant human ACC2; recombinant human ACC2, radioactive assay, conditions of Table 1) | activity at 50 µM (recombinant human ACC2; human ACC2, additive at 50 μM, curcumin in 1% (v/v) DMSO final, activity without test compound = 100%, duplicate, read-out: ACC Activity (%) ± S.D.) [%] | Structure (SMILES) | solubility in dimethylsulfoxide ([1]; dimethylsulfoxide) | solubility in ethanol ([1]; ethanol) | solubility in ether ([1]; ether) | solubility in water ([1]; water) |
| --- | --- | --- | --- | --- | --- | --- | --- | --- |
| 106 ± 7 | No significant inhibition | no significant effect |  | C=C[C@](C)(O)CC/C=C(\C)C(=O)O[C@H]1[C@H](O)[C@@H](O)[C@H](O[C@@](C)(C=C)CC/C=C(\CO)C(=O)O[C@H]2C[C@]3(C(=O)O[C@@H]4O[C@H](CO)[C@@H](O)[C@H](O)[C@H]4O[C@@H]4O[C@@H](C)[C@H](O[C@@H]5O[C@@H](CO)[C@H](O)[C@H]5O)[C@@H](O[C@@H]5O[C@H](CO)[C@@H](O)[C@H](O)[C@H]5O)[C@H]4O)[C@H](O)C[C@]4(C)C(=CC[C@@H]5[C@@]6(C)CC[C@H](O[C@@H]7O[C@H](CO[C@@H]8O[C@H](C)[C@H](O)[C@H](O)[C@H]8O[C@@H]8OC[C@@H](O)[C@H](O)[C@H]8O)[C@@H](O)[C@H](O)[C@H]7NC(C)=O)C(C)(C)[C@@H]6CC[C@]54C)[C@@H]3CC2(C)C)O[C@@H]1C [avicin G] |  |  |  |  |
|  |  |  | 57 ± 3 | COc1cc(/C=C/C(=O)CC(=O)/C=C/c2ccc(O)c(OC)c2)ccc1O [curcumin, 1,7,-bis(4-hydroxy-3-methoxyphenyl)-1,6-heptadiene-3,5-dione] | soluble | soluble | insoluble | insoluble |
